The results in this text go back to ChEMBL document CHEMBL1201862, “PubChem BioAssay data set” (2004).

Some test systems named below: SK-MEL-2; MOLT-4; K562; LOX IMVI; SK-MEL-5; CCRF-CEM; SK-OV-3; SN12C; HL-60; SF-539; HOP-62; ACHN; PC-3; CAKI-1; HCT-116; SW-620; SR; HCC 2998; HOP-92; EKVX.
Common to all, as to assay: inhibition of tumour cell growth, NCI panel, 48 h

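How tested: cells in 96-well plates exposed to compound for 48 hours at five concentrations. The concentration for 50% growth inhibition is given as GI50.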 Active and inactive are the calls of the source. Cut-off read from the data, not from the text of the source: active = GI50 up to about 1.1 µM and inactive = higher. Where only a bound is given, the exact number is not on record here.

In the case of `CN(CCCNC(=O)c1nn(-c2ccccc2)c2c1ccc1ccccc12)CCCNC(=O)c1nn(-c2ccccc2)c2c1ccc1ccccc12`, the GI50 was 1.69 µM (inactive) with SK-MEL-2; 1.98 µM (inactive) in the assay on MOLT-4; 1.29 µM (inactive) with K562; 1.73 µM (inactive) with LOX IMVI; 1.77 µM (inactive) in the assay on SK-MEL-5; 0.178 µM (active) in the assay on CCRF-CEM. The GI50 with SK-OV-3 is 1.83 µM (inactive); in the assay on SN12C, 1.85 µM (inactive); in the assay on HL-60, 0.221 µM (active); in the assay on SF-539 it was 1.96 µM (inactive); in the assay on HOP-62 it was 1.86 µM (inactive); in the assay with ACHN, 1.74 µM (inactive). Moreover, the GI50 is 1.52 µM (inactive) with PC-3; 1.61 µM (inactive) with CAKI-1; 1.82 µM (inactive) in the assay with HCT-116; 1.95 µM (inactive) in the assay with SW-620; 1.24 µM (inactive) with SR; 1.31 µM (inactive) in the assay on HCC 2998. The GI50 was 1.83 µM (inactive) in the assay with HOP-92 and 1.81 µM (inactive) in the assay on EKVX.
As for `CNC(=O)OCC1C2=C(C(=O)C(C)=C(N)C2=O)N2CC3C(N3C)C12OC` (stereo not given), the GI50 was 26.1 µM (inactive) in the assay with SK-MEL-2; 3.29 µM (inactive) in the assay with MOLT-4; 25.6 µM (inactive) in the assay with K562; 9.91 µM (inactive) with LOX IMVI; 11.5 µM (inactive) in the assay on SK-MEL-5; 3.76 µM (inactive) in the assay with CCRF-CEM. In addition, the GI50 is 28.9 µM (inactive) with SK-OV-3; 5.61 µM (inactive) in the assay with SN12C; 1.92 µM (inactive) in the assay with HL-60; 10.1 µM (inactive) in the assay with SF-539; 14.4 µM (inactive) with HOP-62; 3.8 µM (inactive) in the assay on ACHN. Further, the GI50 in the assay with PC-3 was 13.9 µM (inactive); in the assay with CAKI-1, 3.16 µM (inactive); in the assay with HCT-116 it was 10.9 µM (inactive); in the assay on SW-620, 10.8 µM (inactive); with SR, 0.867 µM (active); with HCC 2998, 12.4 µM (inactive). The GI50 in the assay with HOP-92 was 23.7 µM (inactive); in the assay on EKVX, > 100 µM (inactive).
Consider `CCOC(=O)c1sc2nc(SC)nc3c2c1NC(=O)CN3c1ccc(F)cc1`, for which the GI50 with SK-MEL-2 is 54.3 µM (inactive); in the assay on MOLT-4, > 100 µM (inactive); in the assay with K562, 77.6 µM (inactive); with LOX IMVI, 38.3 µM (inactive); in the assay on SK-MEL-5, 46.3 µM (inactive); with CCRF-CEM, 30.1 µM (inactive). The GI50 in the assay with SK-OV-3 was 25 µM (inactive); in the assay on SN12C it was 24.6 µM (inactive); in the assay on HL-60, 98.6 µM (inactive); in the assay on SF-539 it was 15.9 µM (inactive); with HOP-62, 15.7 µM (inactive); in the assay on ACHN, 21.6 µM (inactive). Further, the GI50 was 16.6 µM (inactive) in the assay with PC-3; > 100 µM (inactive) with CAKI-1; 26.4 µM (inactive) in the assay on HCT-116; 38.5 µM (inactive) in the assay with SW-620; > 100 µM (inactive) with SR; 34.6 µM (inactive) in the assay on HCC 2998. For the same compound, the figures for the GI50 in the assay on HOP-92 and in the assay on EKVX were 31.8 µM (inactive) and 47.4 µM (inactive), respectively.
As to `O=C(/C=C/c1ccc2c(c1)OCO2)Cc1nc2ccccc2[nH]c1=O`, the GI50 in the assay on SK-MEL-2 is 22 µM (inactive); in the assay with MOLT-4, 38.9 µM (inactive); in the assay with K562, 5.3 µM (inactive); in the assay on LOX IMVI, 3.52 µM (inactive); in the assay with SK-MEL-5, 32.6 µM (inactive); with CCRF-CEM, 35.8 µM (inactive). Also, the GI50 was 18.6 µM (inactive) in the assay on SK-OV-3; 24.1 µM (inactive) with SN12C; 44.3 µM (inactive) with HL-60; 75 µM (inactive) in the assay with SF-539; 17.5 µM (inactive) with HOP-62; 13.6 µM (inactive) with ACHN. Moreover, the GI50 is 23.2 µM (inactive) in the assay on PC-3; 16.8 µM (inactive) in the assay on CAKI-1; 22.5 µM (inactive) in the assay on HCT-116; 30.4 µM (inactive) in the assay with SW-620; 25.5 µM (inactive) in the assay with SR; 26.5 µM (inactive) in the assay with HCC 2998. Also, the figures for the GI50 with HOP-92 and with EKVX were 20.7 µM (inactive) and 31.9 µM (inactive), respectively.
In the case of `Clc1ccc(C2ON=C(c3ccccc3)N2C23CC4CC(CC(C4)C2)C3)cc1` (stereo not given), the GI50 is > 10 µM (inactive) in the assay on SK-MEL-2; 9.66 µM (inactive) with MOLT-4; > 10 µM (inactive) with K562; > 10 µM (inactive) in the assay with LOX IMVI; > 10 µM (inactive) in the assay with SK-MEL-5; > 10 µM (inactive) in the assay with CCRF-CEM. Moreover, the GI50 in the assay on SK-OV-3, in the assay with SN12C, in the assay on HL-60, in the assay on SF-539, in the assay on HOP-62 and in the assay on ACHN was > 10 µM (inactive) in each case. In addition, the GI50 in the assay on PC-3, with CAKI-1, in the assay with HCT-116, in the assay with SW-620, in the assay with SR and in the assay on HCC 2998 was > 10 µM (inactive) throughout. The GI50 in the assay with HOP-92 and in the assay with EKVX was > 10 µM (inactive) each time.
